Assay [1] concerns EGFR Del19/T790M/C797S (BaF3-DTC cells). As to the kind of experiment: EGFR degradation HTRF assay, BaF3-DTC cells. The assay is classed as cell-based. The note with it: 16h treatment; for DTC Dmax (%): maximum percentage of degradation; for DC50: read-out: DTC DC50. In short, it runs like this:
(§1)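 Cells treated 16 h at 37 °C, 5% CO2 in medium with 0.2% DMSO; top final concentration 10 uM, 5-fold dilution, 8 doses. Lysates read by HTRF (665/620 nm); degradation % versus DMSO high control, DC50 from four-parameter fit, Dmax as maximal degradation.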

Assay [2] has as its target T1, EGFR L858R/T790M/C797S (BaF3-LTC cells) (Homo sapiens, UniProt P00533, C797S/L858R/T790M).
T1 construct: expressed in transfected cells; host or cells: BaF3
Nature of the assay: EGFR degradation HTRF assay, BaF3-LTC cells. The assay is classed as cell-based. The note with it: BaF3-LTC, 16h treatment; for Dmax: maximum percentage of degradation, read-out: LTC Dmax (%); for DC50: read-out: LTC DC50. In short, it runs like this:
as §1
For orientation: In TR-FRET formats the signal depends on donor and acceptor labels being close together.

T1 sequence (P00533 25-1210 T790M/C797S/L858R): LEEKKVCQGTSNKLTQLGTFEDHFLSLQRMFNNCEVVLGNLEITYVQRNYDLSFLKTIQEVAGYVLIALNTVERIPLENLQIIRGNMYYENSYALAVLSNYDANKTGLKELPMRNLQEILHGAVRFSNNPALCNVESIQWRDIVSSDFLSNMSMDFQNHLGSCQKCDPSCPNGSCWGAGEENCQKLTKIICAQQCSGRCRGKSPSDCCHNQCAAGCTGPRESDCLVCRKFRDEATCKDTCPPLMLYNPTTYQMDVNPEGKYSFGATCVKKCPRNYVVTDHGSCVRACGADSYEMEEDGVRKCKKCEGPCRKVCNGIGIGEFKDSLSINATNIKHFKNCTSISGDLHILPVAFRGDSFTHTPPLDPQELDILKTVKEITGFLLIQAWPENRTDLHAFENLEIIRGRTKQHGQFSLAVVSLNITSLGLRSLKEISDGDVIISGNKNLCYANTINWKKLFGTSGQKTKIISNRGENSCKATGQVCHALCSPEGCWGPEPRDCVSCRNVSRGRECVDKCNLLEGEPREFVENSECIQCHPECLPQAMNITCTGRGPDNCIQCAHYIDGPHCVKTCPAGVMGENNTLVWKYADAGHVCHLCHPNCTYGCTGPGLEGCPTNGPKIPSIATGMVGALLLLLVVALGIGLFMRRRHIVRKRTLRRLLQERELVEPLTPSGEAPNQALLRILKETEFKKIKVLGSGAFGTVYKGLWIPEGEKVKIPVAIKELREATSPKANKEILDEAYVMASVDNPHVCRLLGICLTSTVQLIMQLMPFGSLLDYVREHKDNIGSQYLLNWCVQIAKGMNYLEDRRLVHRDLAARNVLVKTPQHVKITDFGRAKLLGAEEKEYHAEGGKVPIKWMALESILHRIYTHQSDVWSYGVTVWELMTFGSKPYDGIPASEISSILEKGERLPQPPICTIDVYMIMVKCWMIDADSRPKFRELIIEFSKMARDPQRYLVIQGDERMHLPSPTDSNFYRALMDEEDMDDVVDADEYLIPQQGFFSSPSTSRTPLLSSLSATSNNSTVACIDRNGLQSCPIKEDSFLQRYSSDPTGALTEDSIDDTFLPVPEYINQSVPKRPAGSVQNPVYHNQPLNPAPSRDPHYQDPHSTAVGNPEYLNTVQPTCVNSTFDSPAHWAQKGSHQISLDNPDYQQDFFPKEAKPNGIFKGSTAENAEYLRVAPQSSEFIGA

As a reminder, the DC50 is the midpoint of the concentration-degradation curve. A word on the Dmax: it is the largest share of the target that was removed. For `CCc1cc(Nc2ncc(Br)c(Nc3ccc4nccnc4c3P(C)(C)=O)n2)c(OC)cc1N1CCC(N2CCN(CCc3ccc(C4CCC(=O)NC4=O)c(F)c3)[C@H](COC)C2)CC1` (stereo partly drawn) [Example 292, 3-(4-(2-((S)-4-(1-(4-((5-bromo-4-((5-(dimethylphosphoryl)quinoxalin-6-yl)amino)pyrimidin-2-yl)amino)-2-ethyl-5-methoxyphenyl)piperidin-4-yl)-2-(methoxymethyl)piperazin-1-yl)ethyl)-2-fluorophenyl)piperidine-2,6-dione], in assay [1], the “DTC Dmax (%)” value came out at 87.11% and the DC50 was 15.1 nM. In assay [2], the Dmax came to 84.2% and the DC50 turned out to be 32.3 nM.
The like results for `CCc1cc(Nc2ncc(Br)c(Nc3ccc4nccnc4c3P(C)(C)=O)n2)c(OC)cc1N1CCC(N2CCN(CCc3ccc(C4CCC(=O)NC4=O)c(F)c3)[C@@H](COC)C2)CC1` (stereo partly drawn) [Example 293, 3-(4-(2-((R)-4-(1-(4-((5-bromo-4-((5-(dimethylphosphoryl)quinoxalin-6-yl)amino)pyrimidin-2-yl)amino)-2-ethyl-5-methoxyphenyl)piperidin-4-yl)-2-(methoxymethyl)piperazin-1-yl)ethyl)-2-fluorophenyl)piperidine-2,6-dione] were, in that order, 83.85%, 17.4 nM, 85.3% and 43.7 nM.
The matching figures for `CCc1cc(Nc2ncc(Br)c(Nc3ccc4nccnc4c3P(C)(C)=O)n2)c(OC)cc1N1CCC(N2CCN(C(=O)[C@H]3C[C@H](Nc4ccc(C5CCC(=O)NC5=O)cc4)C3)CC2)CC1` (some centres unmarked) [Example 298, 3-(4-(((1r,3r)-3-(4-(1-(4-((5-bromo-4-((5-(dimethylphosphoryl)quinoxalin-6-yl)amino)pyrimidin-2-yl)amino)-2-ethyl-5-methoxyphenyl)piperidin-4-yl)piperazine-1-carbonyl)cyclobutyl)amino)phenyl)piperidine-2,6-dione]: 86.58%, 4.38 nM, 80.8% and 16.7 nM.
As to `CCc1cc(Nc2ncc(Br)c(Nc3ccc4nccnc4c3P(C)(C)=O)n2)c(OC)cc1N1CCC(N2CCN(C3CCN(c4ccc(C5CCC(=O)NC5=O)cc4)CC3)CC2)CC1` (centres unmarked) [Example 299, 3-(4-(4-(4-(1-(4-((5-bromo-4-((5-(dimethylphosphoryl)quinoxalin-6-yl)amino)pyrimidin-2-yl)amino)-2-ethyl-5-methoxyphenyl)piperidin-4-yl)piperazin-1-yl)piperidin-1-yl)phenyl)piperidine-2,6-dione], in assay [1], the “DTC Dmax (%)” value is 80.72% and the DC50 worked out at 4.88 nM. Besides, in assay [2], the Dmax is 85% and the DC50 amounted to 36.4 nM.
The like results for `CCc1cc(Nc2ncc(Br)c(Nc3ccc4nccnc4c3P(C)(C)=O)n2)c(OC)cc1N1CCC(N2CCN(C3CN(c4cc(F)c(C5CCC(=O)NC5=O)c(F)c4)C3)CC2)CC1` (centres unmarked) [Example 302, 3-(4-(3-(4-(1-(4-((5-bromo-4-((5-(dimethylphosphoryl)quinoxalin-6-yl)amino)pyrimidin-2-yl)amino)-2-ethyl-5-methoxyphenyl)piperidin-4-yl)piperazin-1-yl)azetidin-1-yl)-2,6-difluorophenyl)piperidine-2,6-dione] were, in that order, 88.36%, 6.02 nM, 83.8% and 17 nM.
The matching figures for `CCc1cc(Nc2ncc(Br)c(Nc3ccc4nccnc4c3P(C)(C)=O)n2)c(OC)cc1N1CCC(N2CCN(CC3CCN(c4cc(F)c(C5CCC(=O)NC5=O)c(F)c4)CC3)CC2)CC1` (centres unmarked) [Example 303, 3-(4-(4-((4-(1-(4-((5-bromo-4-((5-(dimethylphosphoryl)quinoxalin-6-yl)amino)pyrimidin-2-yl)amino)-2-ethyl-5-methoxyphenyl)piperidin-4-yl)piperazin-1-yl)methyl)piperidin-1-yl)-2,6-difluorophenyl)piperidine-2,6-dione]: 90.93%, 10.6 nM, 86.7% and 41.2 nM.
The matching figures for `CCc1cc(Nc2ncc(Br)c(Nc3ccc4nccnc4c3P(C)(C)=O)n2)c(OC)cc1N1CCC(N2CCN(C(=O)C3CN(c4ccc(C5CCC(=O)NC5=O)c(C#N)c4)C3)CC2)CC1` (centres unmarked) [Example 306, 5-(3-(4-(1-(4-((5-bromo-4-((5-(dimethylphosphoryl)quinoxalin-6-yl)amino)pyrimidin-2-yl)amino)-2-ethyl-5-methoxyphenyl)piperidin-4-yl)piperazine-1-carbonyl)azetidin-1-yl)-2-(2,6-dioxopiperidin-3-yl)benzonitrile]: 73.14%, 9.57 nM, 85.8% and 17.1 nM.
In the case of `CCc1cc(Nc2ncc(Br)c(Nc3ccc4nccnc4c3P(C)(C)=O)n2)c(OC)cc1N1CCC(N2CCN(C[C@H]3C[C@H](N(C)c4cccc(C5CCC(=O)NC5=O)c4)C3)CC2)CC1` (some centres unmarked) [Example 307, 3-(3-(((1r,3r)-3-((4-(1-(4-((5-bromo-4-((5-(dimethylphosphoryl)quinoxalin-6-yl)amino)pyrimidin-2-yl)amino)-2-ethyl-5-methoxyphenyl)piperidin-4-yl)piperazin-1-yl)methyl)cyclobutyl)(methyl)amino)phenyl)piperidine-2,6-dione], in assay [1], the “DTC Dmax (%)” value worked out at 73.68% and the DC50 was determined as 43.3 nM. In addition, in assay [2], the Dmax came to 87.4% and the DC50 amounted to 77.1 nM.
Take `CCc1cc(Nc2ncc(Br)c(Nc3ccc4nccnc4c3P(C)(C)=O)n2)c(OC)cc1N1CCC(N2CCN(C(=O)C3CCN(c4ccc5nn(C6CCC(=O)NC6=O)cc5c4)CC3)CC2)CC1` (centres unmarked) [Example 308, 3-(5-(4-(4-(1-(4-((5-bromo-4-((5-(dimethylphosphoryl)quinoxalin-6-yl)amino)pyrimidin-2-yl)amino)-2-ethyl-5-methoxyphenyl)piperidin-4-yl)piperazine-1-carbonyl)piperidin-1-yl)-2H-indazol-2-yl)piperidine-2,6-dione]: in assay [1], the “DTC Dmax (%)” value came out at 93.79% and the DC50 was found to be 5.01 nM. Also, in assay [2], the Dmax was found to be 91.8% and the 50% degradation concentration (DC50) came to 15.6 nM.
The matching figures for `CCc1cc(Nc2ncc(Br)c(Nc3ccc4nccnc4c3P(C)(C)=O)n2)c(OC)cc1N1CCC(N2CCN(CCc3ccc4nn(C5CCC(=O)NC5=O)cc4c3)CC2)CC1` (centres unmarked) [Example 309, 3-(5-(2-(4-(1-(4-((5-bromo-4-((5-(dimethylphosphoryl)quinoxalin-6-yl)amino)pyrimidin-2-yl)amino)-2-ethyl-5-methoxyphenyl)piperidin-4-yl)piperazin-1-yl)ethyl)-2H-indazol-2-yl)piperidine-2,6-dione]: 92.99%, 5.89 nM, 87.2% and 32.1 nM.
The matching figures for `CCc1cc(Nc2ncc(Br)c(Nc3ccc4nccnc4c3P(C)(C)=O)n2)c(OC)cc1N1CCC(N2CCN(C3CC4(CCN(c5ccc(C6CCC(=O)NC6=O)cc5)CC4)C3)CC2)CC1` (centres unmarked) [Example 311, 3-(4-(2-(4-(1-(4-((5-bromo-4-((5-(dimethylphosphoryl)quinoxalin-6-yl)amino)pyrimidin-2-yl)amino)-2-ethyl-5-methoxyphenyl)piperidin-4-yl)piperazin-1-yl)-7-azaspiro[3.5]nonan-7-yl)phenyl)piperidine-2,6-dione]: 77.19%, 31.8 nM, 76.3% and 78.2 nM.
The matching figures for `CCc1cc(Nc2ncc(Br)c(Nc3ccc4nc(C)ccc4c3P(C)(C)=O)n2)c(OC)cc1N1CCC(N2CCN(CCC3CCN(c4cc(F)c(C5CCC(=O)NC5=O)c(F)c4)CC3)CC2)CC1` (centres unmarked) [Example 312, 3-(4-(4-(2-(4-(1-(4-((5-bromo-4-((5-(dimethylphosphoryl)-2-methylquinolin-6-yl)amino)pyrimidin-2-yl)amino)-2-ethyl-5-methoxyphenyl)piperidin-4-yl)piperazin-1-yl)ethyl)piperidin-1-yl)-2,6-difluorophenyl)piperidine-2,6-dione]: 88.59%, 8.17 nM, 86.1% and 16.1 nM.
Consider `CCc1cc(Nc2ncc(Br)c(Nc3ccc4nc(C(C)C)ccc4c3P(C)(C)=O)n2)c(OC)cc1N1CCC(N2CCN(CCC3CCN(c4cc(F)c(C5CCC(=O)NC5=O)c(F)c4)CC3)CC2)CC1` (centres unmarked) [Example 313, 3-(4-(4-(2-(4-(1-(4-((5-bromo-4-((5-(dimethylphosphoryl)-2-isopropylquinolin-6-yl)amino)pyrimidin-2-yl)amino)-2-ethyl-5-methoxyphenyl)piperidin-4-yl)piperazin-1-yl)ethyl)piperidin-1-yl)-2,6-difluorophenyl)piperidine-2,6-dione], for which, in assay [1], the “DTC Dmax (%)” value worked out at 90.8% and the DC50 amounted to 28.6 nM. For the same compound, in assay [2], the greatest degradation seen (Dmax) came to 87.5% and the DC50 was determined as 53.7 nM.
The like results for `CCc1cc(Nc2ncc(Br)c(Nc3ccc4nc(C)ccc4c3P(C)(C)=O)n2)c(OC)cc1N1CCC(N2CCN(CCc3cc(F)c(C4CCC(=O)NC4=O)c(F)c3)CC2)CC1` (centres unmarked) [Example 314, 3-(4-(2-(4-(1-(4-((5-bromo-4-((5-(dimethylphosphoryl)-2-methylquinolin-6-yl)amino)pyrimidin-2-yl)amino)-2-ethyl-5-methoxyphenyl)piperidin-4-yl)piperazin-1-yl)ethyl)-2,6-difluorophenyl)piperidine-2,6-dione] were, in that order, 91.87%, 2.48 nM, 87.8% and 6.5 nM.

(Values after patent publication US20230265116A1, “DEGRADATION OF (EGFR) BY CONJUGATION OF EGFR INHIBITORS WITH E3 LIGASE LIGAND AND METHODS OF USE” (BEIGENE, LTD., priority 2020, published 2023).)
